# Assay results from PubChem BioAssay AID2060905 (Molecular Pharmacology Branch, DTP, NCI, 2025).
# pIC50: −log10 of the molar value.
# Test system: 282377-053-R-J1-PDC complex spheroid viability
# Assay: Anticancer human tumor 282377-053-R-J1-PDC patient-derived colon adenocarcinoma cell line growth inhibition [RAS]
# Conditions: for pIC50: curve of first compound; for viability, T/C: stronger effect = lower value
# Outline: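 Multi-cell-type spheroids: tumor cells plus HUVEC endothelial cells and mesenchymal stem cells. RAS-pathway inhibitors were combined with targeted agents, each dosed in half-log steps down from clinical Cmax, or from 10 microM when Cmax was unknown.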
# [1] = second compound 0.000949 µM, first compound 0.00316 µM
# [2] = second compound 0.000949 µM, first compound 0.01 µM
# [3] = second compound 0.000949 µM, first compound 0.0316 µM
# [4] = second compound 0.000949 µM, first compound 0.1 µM
# [5] = second compound 0.003 µM, first compound 0.00316 µM
# [6] = second compound 0.003 µM, first compound 0.01 µM
# [7] = second compound 0.003 µM, first compound 0.0316 µM
# [8] = second compound 0.003 µM, first compound 0.1 µM
# [9] = second compound 0.00949 µM, first compound 0.00316 µM
# [10] = second compound 0.00949 µM, first compound 0.01 µM
# [11] = second compound 0.00949 µM, first compound 0.0316 µM
# [12] = second compound 0.00949 µM, first compound 0.1 µM
# [13] = second compound 0.03 µM, first compound 0.00316 µM
# [14] = second compound 0.03 µM, first compound 0.01 µM
# [15] = second compound 0.03 µM, first compound 0.0316 µM
# [16] = second compound 0.03 µM, first compound 0.1 µM
# [17] = second compound 0.0949 µM, first compound 0.00316 µM
# [18] = second compound 0.0949 µM, first compound 0.01 µM
# [19] = second compound 0.0949 µM, first compound 0.0316 µM
# [20] = second compound 0.0949 µM, first compound 0.1 µM
# [21] = second compound 0.3 µM, first compound 0.00316 µM
# [22] = second compound 0.3 µM, first compound 0.01 µM
# [23] = second compound 0.3 µM, first compound 0.0316 µM
# [24] = second compound 0.3 µM, first compound 0.1 µM
# [25] = second compound 0.000949 µM, first compound 0.316 µM
# [26] = second compound 0.000949 µM, first compound 1 µM
# [27] = second compound 0.000949 µM, first compound 3.16 µM
# [28] = second compound 0.000949 µM, first compound 10 µM
# [29] = second compound 0.003 µM, first compound 0.316 µM
# [30] = second compound 0.003 µM, first compound 1 µM
# [31] = second compound 0.003 µM, first compound 3.16 µM
# [32] = second compound 0.003 µM, first compound 10 µM
# [33] = second compound 0.00949 µM, first compound 0.316 µM
# [34] = second compound 0.00949 µM, first compound 1 µM
# [35] = second compound 0.00949 µM, first compound 3.16 µM
# [36] = second compound 0.00949 µM, first compound 10 µM
# [37] = second compound 0.03 µM, first compound 0.316 µM
# [38] = second compound 0.03 µM, first compound 1 µM
# [39] = second compound 0.03 µM, first compound 3.16 µM
# [40] = second compound 0.03 µM, first compound 10 µM
# [41] = second compound 0.0949 µM, first compound 0.316 µM
# [42] = second compound 0.0949 µM, first compound 1 µM
# [43] = second compound 0.0949 µM, first compound 3.16 µM
# [44] = second compound 0.0949 µM, first compound 10 µM
# [45] = second compound 0.3 µM, first compound 0.316 µM
# [46] = second compound 0.3 µM, first compound 1 µM
# [47] = second compound 0.3 µM, first compound 3.16 µM
# [48] = second compound 0.3 µM, first compound 10 µM
# 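Note: spheroids exposed to agents for seven days before readout.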
# 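Throughout, for viability, T/C: luminescence viability as percent of DMSO vehicle control wells.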
smiles,measurement,setting,value
CC(C)n1nc(-c2ccc3oc(N)nc3c2)c2c(N)ncnc21 + CCn1c(-c2cc(N3CCN(C)CC3)cnc2C(C)OC)c2c3cc(ccc31)-c1csc(n1)CC(NC(=O)C1CC1C)C(=O)N1CCCC(N1)C(=O)OCC(C)(C)C2,pIC50,second compound 0.000949 µM,< 7.00
same,pIC50,second compound 0.003 µM,7.22
same,pIC50,second compound 0.00949 µM,7.02
same,pIC50,second compound 0.03 µM,7.36
same,pIC50,second compound 0.0949 µM,7.35
same,pIC50,second compound 0.3 µM,< 7.00
same,"viability, T/C","second compound 0.000949 µM, first compound 0.000316 µM",68.7%
same,"viability, T/C","second compound 0.000949 µM, first compound 0.001 µM",101%
same,"viability, T/C",[1],86.2%
same,"viability, T/C",[2],74.5%
same,"viability, T/C",[3],64.3%
same,"viability, T/C",[4],50.4%
same,"viability, T/C","second compound 0.003 µM, first compound 0.000316 µM",103%
same,"viability, T/C","second compound 0.003 µM, first compound 0.001 µM",102%
same,"viability, T/C",[5],77.8%
same,"viability, T/C",[6],72.1%
same,"viability, T/C",[7],61.7%
same,"viability, T/C",[8],42.1%
same,"viability, T/C","second compound 0.00949 µM, first compound 0.000316 µM",96.1%
same,"viability, T/C","second compound 0.00949 µM, first compound 0.001 µM",102%
same,"viability, T/C",[9],93.8%
same,"viability, T/C",[10],73.4%
same,"viability, T/C",[11],54.3%
same,"viability, T/C",[12],49.5%
same,"viability, T/C","second compound 0.03 µM, first compound 0.000316 µM",104%
same,"viability, T/C","second compound 0.03 µM, first compound 0.001 µM",88%
same,"viability, T/C",[13],88.9%
same,"viability, T/C",[14],62.4%
same,"viability, T/C",[15],54%
same,"viability, T/C",[16],43.5%
same,"viability, T/C","second compound 0.0949 µM, first compound 0.000316 µM",100%
same,"viability, T/C","second compound 0.0949 µM, first compound 0.001 µM",84.9%
same,"viability, T/C",[17],86.9%
same,"viability, T/C",[18],60.7%
same,"viability, T/C",[19],57.7%
same,"viability, T/C",[20],39.5%
same,"viability, T/C","second compound 0.3 µM, first compound 0.000316 µM",90.3%
same,"viability, T/C","second compound 0.3 µM, first compound 0.001 µM",98.8%
same,"viability, T/C",[21],78.3%
same,"viability, T/C",[22],65.5%
same,"viability, T/C",[23],58.9%
same,"viability, T/C",[24],48.9%
CC1(O)CCCC1n1c(=O)c(C(F)F)cc2cnc(NC3CCN(S(C)(=O)=O)CC3)nc21 (stereo not drawn) + CCn1c(-c2cc(N3CCN(C)CC3)cnc2C(C)OC)c2c3cc(ccc31)-c1csc(n1)CC(NC(=O)C1CC1C)C(=O)N1CCCC(N1)C(=O)OCC(C)(C)C2,pIC50,second compound 0.000949 µM,5.17
same,pIC50,second compound 0.003 µM,5.15
same,pIC50,second compound 0.00949 µM,5.15
same,pIC50,second compound 0.03 µM,5.16
same,pIC50,second compound 0.0949 µM,5.16
same,pIC50,second compound 0.3 µM,5.15
same,"viability, T/C",[3],101%
same,"viability, T/C",[4],141%
same,"viability, T/C",[25],112%
same,"viability, T/C",[26],155%
same,"viability, T/C",[27],162%
same,"viability, T/C",[28],6.35%
same,"viability, T/C",[7],116%
same,"viability, T/C",[8],117%
same,"viability, T/C",[29],151%
same,"viability, T/C",[30],146%
same,"viability, T/C",[31],204%
same,"viability, T/C",[32],10.2%
same,"viability, T/C",[11],91.9%
same,"viability, T/C",[12],115%
same,"viability, T/C",[33],165%
same,"viability, T/C",[34],153%
same,"viability, T/C",[35],189%
same,"viability, T/C",[36],9.24%
same,"viability, T/C",[15],112%
same,"viability, T/C",[16],104%
same,"viability, T/C",[37],169%
same,"viability, T/C",[38],182%
same,"viability, T/C",[39],167%
same,"viability, T/C",[40],6.22%
same,"viability, T/C",[19],94.1%
same,"viability, T/C",[20],141%
same,"viability, T/C",[41],139%
same,"viability, T/C",[42],141%
same,"viability, T/C",[43],203%
same,"viability, T/C",[44],5.83%
same,"viability, T/C",[23],106%
same,"viability, T/C",[24],134%
same,"viability, T/C",[45],152%
same,"viability, T/C",[46],190%
same,"viability, T/C",[47],174%
same,"viability, T/C",[48],6.62%
CCN1CCN(Cc2ccc(Nc3ncc(F)c(-c4cc(F)c5nc(C)n(C(C)C)c5c4)n3)nc2)CC1 + CCn1c(-c2cc(N3CCN(C)CC3)cnc2C(C)OC)c2c3cc(ccc31)-c1csc(n1)CC(NC(=O)C1CC1C)C(=O)N1CCCC(N1)C(=O)OCC(C)(C)C2,pIC50,second compound 0.000949 µM,< 6.00
same,pIC50,second compound 0.003 µM,< 6.00
same,pIC50,second compound 0.00949 µM,< 6.00
same,pIC50,second compound 0.03 µM,< 6.00
same,pIC50,second compound 0.0949 µM,< 6.00
same,pIC50,second compound 0.3 µM,< 6.00
same,"viability, T/C",[1],101%
same,"viability, T/C",[2],119%
same,"viability, T/C",[3],98.1%
same,"viability, T/C",[4],120%
same,"viability, T/C",[25],188%
same,"viability, T/C",[26],180%
same,"viability, T/C",[5],102%
same,"viability, T/C",[6],137%
same,"viability, T/C",[7],114%
same,"viability, T/C",[8],90.1%
same,"viability, T/C",[29],142%
same,"viability, T/C",[30],170%
same,"viability, T/C",[9],115%
same,"viability, T/C",[10],126%
same,"viability, T/C",[11],96.2%
same,"viability, T/C",[12],105%
same,"viability, T/C",[33],108%
same,"viability, T/C",[34],194%
same,"viability, T/C",[13],90.4%
same,"viability, T/C",[14],106%
same,"viability, T/C",[15],87.7%
same,"viability, T/C",[16],105%
same,"viability, T/C",[37],131%
same,"viability, T/C",[38],212%
same,"viability, T/C",[17],98.8%
same,"viability, T/C",[18],112%
same,"viability, T/C",[19],89.8%
same,"viability, T/C",[20],123%
same,"viability, T/C",[41],146%
same,"viability, T/C",[42],246%
same,"viability, T/C",[21],102%
same,"viability, T/C",[22],123%
same,"viability, T/C",[23],123%
same,"viability, T/C",[24],119%
same,"viability, T/C",[45],162%
same,"viability, T/C",[46],227%
C[C@@H](NC(=O)c1ncnc(N)c1Cl)c1ncc(C(=O)Nc2cc(C(F)(F)F)c(Cl)cn2)s1 + CCn1c(-c2cc(N3CCN(C)CC3)cnc2C(C)OC)c2c3cc(ccc31)-c1csc(n1)CC(NC(=O)C1CC1C)C(=O)N1CCCC(N1)C(=O)OCC(C)(C)C2,pIC50,second compound 0.000949 µM,< 5.00
same,pIC50,second compound 0.003 µM,< 5.00
same,pIC50,second compound 0.00949 µM,< 5.00
same,pIC50,second compound 0.03 µM,< 5.00
same,pIC50,second compound 0.0949 µM,< 5.00
same,pIC50,second compound 0.3 µM,< 5.00
same,"viability, T/C",[3],82.7%
same,"viability, T/C",[4],100%
same,"viability, T/C",[25],80%
same,"viability, T/C",[26],82.7%
same,"viability, T/C",[27],75.6%
same,"viability, T/C",[28],68.8%
same,"viability, T/C",[7],89.8%
same,"viability, T/C",[8],125%
same,"viability, T/C",[29],81.8%
same,"viability, T/C",[30],90.2%
same,"viability, T/C",[31],70.6%
same,"viability, T/C",[32],59.2%
same,"viability, T/C",[11],110%
same,"viability, T/C",[12],115%
same,"viability, T/C",[33],85.8%
same,"viability, T/C",[34],94%
same,"viability, T/C",[35],68%
same,"viability, T/C",[36],57.9%
same,"viability, T/C",[15],97.2%
same,"viability, T/C",[16],106%
same,"viability, T/C",[37],89.4%
same,"viability, T/C",[38],96%
same,"viability, T/C",[39],63.2%
same,"viability, T/C",[40],60.1%
same,"viability, T/C",[19],110%
same,"viability, T/C",[20],105%
same,"viability, T/C",[41],77.1%
same,"viability, T/C",[42],94.2%
same,"viability, T/C",[43],73.1%
same,"viability, T/C",[44],74.2%
same,"viability, T/C",[23],94.3%
same,"viability, T/C",[24],103%
same,"viability, T/C",[45],89.3%
same,"viability, T/C",[46],108%
same,"viability, T/C",[47],86.4%
same,"viability, T/C",[48],61.2%
